The NIST ThermoML archive (doi:10.1021/je800742d)
± gives the expanded uncertainty stated by the source.

Details: Crystal; visual observation

Normal melting temperature: 278.00 ± 0.5 °C
SMILES: CN1CCN(c2cc3c(cc2F)c(=O)c(C(=O)O)cn3-c2ccc(F)cc2)CC1 [difloxacin]
